This is an account of results in patent US12577255B2, “MDM2-based modulators of proteolysis and associated methods of use” (Arvinas Operations, Inc., priority 2015, dated 2026).

One assay deals with p53. Put plainly: Western blot of HCT116 cells, p53 level. Format: cell-based, human. As to conditions: Western blot (FIG. 2, FIG. 3). For orientation: In western blotting, separated proteins are transferred to a membrane and probed.
A further assay deals with T1, MDM2 (Homo sapiens, UniProt Q00987).
T1 construct: Western blot of HCT116 cells treated with chimeric molecules; endogenous in cells; host or cells: HCT116
Put plainly: Western blot of HCT116 cells, MDM2 level. Format: cell-based. Conditions: Western blot (FIG. 2, FIG. 3).

Assay [1] has as its target T2, bromodomain-containing protein 4 (BRD4) (Homo sapiens, UniProt O60885).
T2 construct: VCaP cells were chased from ATCC and cultured in Dulbecco's Modified Eagle's Medium; host or cells: VCaP
As to the kind of experiment: BRD4 Western blot (degradation). Format: cell-based. As to conditions: at 1 μM; VCaP cells, 16 h. The method, then:
(§1) The following biological assays were performed to evaluate the protein degradation in various cell types using representative compounds disclosed. The degradation of the following proteins were evaluated: bromodomain-containing protein 4 (BRD4), androgen receptor (AR), c-Myc, c-Jun N-terminal kinases (JNK), and enhancer of zeste homolog 2 (EZH2).
VCaP cells were chased from ATCC and cultured in Dulbecco's Modified Eagle's Medium (ATCC), supplemented with 10% FBS (ATCC) and Penicillin/Streptomycin (Life Technologies). DMSO control and compound treatments (0.03 μM to 1 μM) were performed in 12-well plates for 16 h. cells were harvested, and lysed in RIPA buffer (50 mM Tris pH8, 150 mM NaCl, 1% Tx-100, 0.1% SDS, 0.5% sodium deoxycholate) supplemented with protease and phosphatase inhibitors. Lysates were clarified at 16,000 g for 10 minutes, and protein concentration was determined. Equal amount of protein (20 μg) was subjected to SDS-PAGE analysis and followed by immunoblotting according to standard protocols. The antibodies used were BRD4 (Cell signaling #13440), and Actin (Sigma #5441). Detection reagents were Clarity Western ELC substrate (Bio-rad #170-5060).

In the next assay the target is T3, androgen receptor (AR) (Homo sapiens, UniProt P10275).
T3 construct: detects endogenous levels of total androgen receptor protein; host or cells: VCaP
T3 sequence (P10275 1-920): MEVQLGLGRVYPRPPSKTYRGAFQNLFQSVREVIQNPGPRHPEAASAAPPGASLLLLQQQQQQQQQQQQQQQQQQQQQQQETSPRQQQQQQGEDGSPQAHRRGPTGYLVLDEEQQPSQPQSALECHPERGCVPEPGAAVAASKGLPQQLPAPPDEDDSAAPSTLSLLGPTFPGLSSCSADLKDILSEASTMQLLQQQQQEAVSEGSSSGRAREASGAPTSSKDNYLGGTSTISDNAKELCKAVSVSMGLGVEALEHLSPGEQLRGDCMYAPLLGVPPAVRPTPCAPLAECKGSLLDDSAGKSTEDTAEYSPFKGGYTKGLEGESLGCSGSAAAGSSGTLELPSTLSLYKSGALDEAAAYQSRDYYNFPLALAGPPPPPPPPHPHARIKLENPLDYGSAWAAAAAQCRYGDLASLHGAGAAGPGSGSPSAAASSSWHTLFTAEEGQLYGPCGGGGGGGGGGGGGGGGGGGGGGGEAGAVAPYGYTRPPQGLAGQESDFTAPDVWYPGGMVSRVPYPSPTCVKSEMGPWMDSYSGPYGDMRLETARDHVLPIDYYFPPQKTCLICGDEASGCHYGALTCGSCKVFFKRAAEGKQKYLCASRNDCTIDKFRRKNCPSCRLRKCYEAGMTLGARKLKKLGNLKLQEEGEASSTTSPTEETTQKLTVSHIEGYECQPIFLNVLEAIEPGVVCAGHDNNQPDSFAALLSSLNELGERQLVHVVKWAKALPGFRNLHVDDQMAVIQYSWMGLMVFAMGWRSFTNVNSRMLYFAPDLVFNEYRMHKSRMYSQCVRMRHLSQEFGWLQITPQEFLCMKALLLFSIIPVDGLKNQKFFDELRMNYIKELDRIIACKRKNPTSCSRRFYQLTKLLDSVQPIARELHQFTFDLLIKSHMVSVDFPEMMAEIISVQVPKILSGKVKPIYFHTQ
Put plainly: AR ELISA assay (degradation). Format: cell-based. Conditions: VCaP cells, 16 h. How it is done: as §1
VCaP cells were chased from ATCC and cultured in Dulbecco's Modified Eagle's Medium (ATCC), supplemented with 10% FBS (ATCC) and Penicillin/Streptomycin (Life Technologies). DMSO control and compound treatments (0.0001 μM to 1 μM) were performed in 96-well plates for 16 h. cells were harvested, and lysed with Cell Lysis Buffer (catalog #9803) (20 mM Tris-HCl, pH 7.5, 150 mM NaCl, 1 mM Na2EDTA, 1 mM EGTA, 1% Triton, 2.5 mM sodium pyrophosphate, 1 mM B-glycerophosphate, 1 mM Na3VO4, 1 μg/mL leupeptin. Lysates were clarified at 16,000 g for 10 minutes, and loaded into PathScan AR ELISA (Cell Signaling Catalog #12850). The PathScan Total Androgen Receptor Sanwich ELISA Kit is a solid phase sandwich enzyme-linked immunosorbent assay (ELISA) that detects endogenous levels of total androgen receptor protein. An Androgen Receptor Rabbit mAb has been coated onto the microwells. After incubation with cell lysates, androgen receptor protein is captured by the coated antibody. Following extensive washing, an Androgen receptor Mouse Detection mAbis added to detect the captured androgen receptor protein. Anti-mouse IgG, HRP-linked Antibody is then used to recognize the bound detection antibody. HRP substrate, TMB, is added to develop color. The magnitude of absorbance for the developed color is proportional to the quantity of total androgen receptor protein.

T1 sequence (Q00987 whole entry): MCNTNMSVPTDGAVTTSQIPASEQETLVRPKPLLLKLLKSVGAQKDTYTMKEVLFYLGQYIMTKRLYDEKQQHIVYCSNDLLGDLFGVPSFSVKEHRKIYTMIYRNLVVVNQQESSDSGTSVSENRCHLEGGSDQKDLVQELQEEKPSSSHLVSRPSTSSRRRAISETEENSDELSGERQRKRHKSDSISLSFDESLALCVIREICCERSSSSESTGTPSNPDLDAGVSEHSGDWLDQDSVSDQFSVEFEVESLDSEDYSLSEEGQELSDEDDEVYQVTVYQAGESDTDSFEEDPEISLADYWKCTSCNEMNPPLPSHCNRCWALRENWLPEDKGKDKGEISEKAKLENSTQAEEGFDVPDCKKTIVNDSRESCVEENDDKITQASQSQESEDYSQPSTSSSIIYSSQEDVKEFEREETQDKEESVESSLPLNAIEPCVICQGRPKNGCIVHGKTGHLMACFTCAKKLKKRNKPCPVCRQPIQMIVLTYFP

On to `COc1cc(C(=O)NCCOCCOCC(=O)N[C@H](C(=O)N2C[C@H](O)C[C@H]2C(=O)NCc2ccc(-c3scnc3C)cc2)C(C)(C)C)ccc1NC(=O)C1NC(CC(C)(C)C)C(C#N)(c2ccc(Cl)cc2F)C1c1cccc(Cl)c1F` (mixture of isomers) [Compound A1877, 3-(3-chloro-2-fluorophenyl)-4-(4-chloro-2-fluorophenyl)-4-cyano-5-(2,2-dimethylpropyl)-N-[4-({2-[2-({[(2S)-1-[(2S,4R)-4-hydroxy-2-({[4-(4-methyl-1,3-thiazol-5-yl)phenyl]methyl}carbamoyl)pyrrolidin-1-yl]-3,3-dimethyl-1-oxobutan-2-yl]carbamoyl}methoxy)ethoxy]ethyl}carbamoyl)-2-methoxyphenyl]pyrrolidine-2-carboxamide], for which, in the assay on p53, the p53 level increase result is reported as “dose dependent p53 level increase”. The MDM2 up-regulation entry at MDM2 is “up-regulation of MDM2”.

As for `COc1cc(C(=O)NCCOCCOCC(=O)N[C@H](C(=O)N2C[C@H](O)C[C@H]2C(=O)NCc2ccc(-c3scnc3C)cc2)C(C)(C)C)ccc1NC(=O)[C@H]1N[C@H](CC(C)(C)C)[C@@](C#N)(c2ccc(Cl)cc2F)[C@@H]1c1cccc(Cl)c1F` [Compound A1908], in the assay on p53, the p53 level increase result is “no p53 level increase”. Also, the MDM2 up-regulation result on MDM2 is recorded as “no MDM2 up-regulation”.

`COc1cc(C(=O)NCCOCCNC(=O)C[C@@H]2N=C(c3ccc(Cl)cc3)c3c(sc(C)c3C)-n3c(C)nnc32)ccc1NC(=O)[C@H]1N[C@H](CC(C)(C)C)[C@@](C#N)(c2ccc(Cl)cc2F)[C@@H]1c1cccc(Cl)c1F` [Compound A1891, (2S,3R,4S,5R)-3-(3-chloro-2-fluorophenyl)-4-(4-chloro-2-fluorophenyl)-N-(4-{[2-(2-{2-[(9S)-7-(4-chlorophenyl)-4,5,13-trimethyl-3-thia-1,8,11,12-tetraazatricyclo[8.3.0.0^2,^6]-trideca-2(6),4,7,10,12-pentaen-9-yl]acetamido}ethoxy)ethyl]carbamoyl}-2-methoxyphenyl)-4-cyano-5-(2,2-dimethylpropyl)pyrrolidine-2-carboxamide]: in assay [1], the “Degradation activity BRD4” value is recorded as “A (0 to 25% degradation at 1 μM)”. In addition, the p53 level increase result with p53 is given as “no p53 level increase”. Besides, the MDM2 up-regulation entry on MDM2 is reported as “no MDM2 up-regulation”.

As for `COc1cc(C(=O)NCCOCCOCCOCCOCC(=O)N[C@H](C(=O)N2C[C@H](O)C[C@H]2C(=O)NCc2ccc(-c3scnc3C)cc2)C(C)(C)C)ccc1NC(=O)[C@H]1N[C@H](CC(C)(C)C)[C@@](C#N)(c2ccc(Cl)cc2F)[C@@H]1c1cccc(Cl)c1F` (single isomer, unassigned) [Compound A1897], the p53 level increase entry in the assay with p53 is “no p53 level increase”. Further, the MDM2 up-regulation result on MDM2 is “no MDM2 up-regulation”.

Take `COc1cc(C(=O)NCCOCCOCCOCCOCCNC(=O)C[C@@H]2N=C(c3ccc(Cl)cc3)c3c(sc(C)c3C)-n3c(C)nnc32)ccc1NC(=O)[C@H]1N[C@H](CC(C)(C)C)[C@@](C#N)(c2ccc(Cl)cc2F)[C@@H]1c1cccc(Cl)c1F` [Compound A1894, (2S,3R,4S,5R)-3-(3-chloro-2-fluorophenyl)-4-(4-chloro-2-fluorophenyl)-N-{4-[(14-{2-[(9S)-7-(4-chlorophenyl)-4,5,13-trimethyl-3-thia-1,8,11,12-tetraazatricyclo[8.3.0.0^2,^6]-trideca-2(6),4,7,10,12-pentaen-9-yl]acetamido}-3,6,9,12-tetraoxatetradecan-1-yl)carbamoyl]-2-methoxyphenyl}-4-cyano-5-(2,2-dimethylpropyl)pyrrolidine-2-carboxamide]: in assay [1], the “Degradation activity BRD4” value is given as “A (0 to 25% degradation at 1 μM)”. Moreover, in the assay with p53, the p53 level increase result is on record as “no p53 level increase”. Moreover, the MDM2 up-regulation result on MDM2 is listed as “no MDM2 up-regulation”.

For the compound `CC(C)(C)C[C@@H]1NC(C(=O)NCCOCCOCCOCCOc2ccc(C(=O)N[C@H]3C(C)(C)[C@H](Oc4ccc(C#N)c(Cl)c4)C3(C)C)cc2)[C@H](c2cccc(Cl)c2F)[C@@]1(C#N)c1ccc(Cl)cc1F` (stereo partly drawn) [Compound A1603, 3-(3-chloro-2-fluorophenyl)-4-(4-chloro-2-fluorophenyl)-4-cyano-5-(2,2-dimethylpropyl)-N-[1-(4-{[(1,3-trans)-3-(3-chloro-4-cyanophenoxy)-2,2,4,4-tetramethylcyclobutyl]carbamoyl}phenyl)-1,4,7,10-tetraoxadodecan-12-yl]pyrrolidine-2-carboxamide], the AR degradation (%) at 1 µM on androgen receptor (AR) lay within 0 to 25%.

In the case of `CC(C)(C)CC1NC(C(=O)NCCCOCCCCCOc2ccc(N3C(=S)N(c4ccc(C#N)c(C(F)(F)F)c4)C(=O)C3(C)C)cc2)C(c2cccc(Cl)c2F)C1(C#N)c1ccc(Cl)cc1F` (stereo not shown) [Compound A2434, 3-(3-chloro-2-fluorophenyl)-4-(4-chloro-2-fluorophenyl)-4-cyano-N-(3-{[5-(4-{3-[4-cyano-3-(trifluoromethyl)phenyl]-5,5-dimethyl-4-oxo-2-sulfanylideneimidazolidin-1-yl}phenoxy)pentyl]oxy}propyl)-5-(2,2-dimethylpropyl)pyrrolidine-2-carboxamide], the AR degradation (%) at 1 µM at androgen receptor (AR) was > 50%.

For `COc1cc(C(=O)NCCOCCOCCOCC(=O)N[C@H](C(=O)N2C[C@H](O)C[C@H]2C(=O)NCc2ccc(-c3scnc3C)cc2)C(C)(C)C)ccc1NC(=O)[C@H]1N[C@H](CC(C)(C)C)[C@@](C#N)(c2ccc(Cl)cc2F)[C@@H]1c1cccc(Cl)c1F` [Compound A1911, (2S,3R,4S,5R)-3-(3-chloro-2-fluorophenyl)-4-(4-chloro-2-fluorophenyl)-4-cyano-5-(2,2-dimethylpropyl)-N-{4-[(2-{2-[2-({[(2S)-1-[(2S,4R)-4-hydroxy-2-({[4-(4-methyl-1,3-thiazol-5-yl)phenyl]methyl}-carbamoyl)pyrrolidin-1-yl]-3,3-dimethyl-1-oxobutan-2-yl]carbamoyl}methoxy)-ethoxy]ethoxy}ethyl)carbamoyl]-2-methoxyphenyl}pyrrolidine-2-carboxamide], the p53 level increase result with p53 is “no p53 level increase”. For the same compound, the MDM2 up-regulation entry at MDM2 is “no MDM2 up-regulation”.
